Five compounds from patent US9266867B2, “Piperidinyl monocarboxylic acids as S1P1 receptor agonists” (BIOPROJET, priority 2011, dated 2016) can be followed below.

One series deals with EDG1. The series can be described thus: In vivo activity versus counterpart of WO 2007/132307. The settings on record: at 1 mg/kg. The text has this:
The compounds of the invention show a better in vivo activity profile over their corresponding counterparts of WO 2007/132307, as evidenced below: […]

For series [1], the target named is T1, EDG-1 (Homo sapiens, UniProt P21453). The series can be described thus: 35S-GTPγS binding assay, EDG1 (S1P1). In kind it is biochemical. On the set-up: expressed in transfected cells. The note with it: Table 1a; read-out: EC50 (nM) EDG1. The gist of the method:
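Cell membranes (~15 μg protein) in 50 mM tris-HCl pH 7.5, 10 mM MgCl2, 100 mM NaCl, 10 μM GDP with 0.025 nM [35S]GTP-γ-S; nonspecific binding defined by 10 μM unlabelled GTP-γ-S. Intrinsic activity expressed relative to maximal S1P stimulation (full/partial agonism).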
(GTPγS resists hydrolysis and so accumulates on activated G proteins.)

The nature of series [2]: Pharmacokinetic parameters in Swiss mice after oral administration. The settings on record: mouse, in vivo, 1 mg/kg p.o. The text has this: Moreover, preferred compounds of the present invention also display an outstanding bioavailability.
A further series addresses hERG channel (Homo sapiens, UniProt Q12809). In words: biochemical. The method, then:
c) Evaluation of Activity for hERG Blockade Liability
HEK293 cells were stably transfected with the human hERG receptor gene. Binding assays were performed using 5 μg of cell membranes expressing hERG channel resuspended in 10 mM Hepes pH 7.4, 135 mM NaCl, 60 mM DL-Aspartic Acid Potassium, 1 mM EGTA, 0.8 mM MgCl2, 10 mM (D+) Glucose, 0.01% BSA, in a final volume of 200 μL. For [^3H] […] Non specific binding was estimated in the presence of 1 μM Astemizole. The reaction was terminated by filtration through Durapore BV 1.2 μm filters pre-soaked in 3% polyethyleneimine 10 minutes at room temperature. Filters were rinsed 2 times with 250 μL of ice cold 25 mM Tris-HCl pH 7.4 buffer. The filter-bound radioactivity was measured in a liquid scintillation counter with 50 μL of scintillation fluid. [^3H]
The hERG binding investigated by use of [^3H]

Another series addresses EDG5 (Homo sapiens, UniProt O95136). In words: 35S-GTPγS binding assay, EDG5 (S1P2). In kind it is biochemical. The note with it: Table 1a. Here is the method:
(§1) a) 35S-GTPγS Binding Assay GTP-γ-^35S binding was performed using […]15 μg protein of cell membranes suspended in 50 mM tris-HCl pH 7.5 containing 10 mM MgCl2, 100 mM NaCl and 10 μM GDP. The radioligand was 0.025 nM [^35S] GTP-γ-S and non specific binding determined in the presence of 10 μM non-radioactive GTP-γ-S. […] The maximal stimulation elicited by S1P was taken as a reference to define full or partial agonism and calculate the intrinsic activity (i.a.) of compounds.

Series [3] relates to circulating lymphocytes. The series can be described thus: In vivo lymphopenia ED50 in mice. The settings on record: Mus musculus, Lymphocyte, read-out: ED50 (EDG1) (In mice). The method, then:
(§2) b) Assessment of Lymphopenia
(§3) Lymphopenia was assessed in vivo. Experiments were done in non-fasted/fasted Swiss mice and/or: Sprague Dawley rats, Wistar rats, Beagle dogs, Cynomolgus monkeys. Compounds were administered orally in suspension in carboxymethyl-cellulose 0.5-1% in water (W/V). Blood was taken on anesthetized/non anaesthetized animal (4% isoflurane) and samples collected in EDTA-containing vacuum tubes from 1 h 30 to 72 hours post administration for lymphopenia measurement.
(§4) After 10 minutes stirring, cells were counted using ABC Vet haemocytometer (Scil vet animal Care) for rodent and dog or ADVIA 120 hematology analyzer for monkeys. Pharmacodynamic effect was measured by the decrease in circulating lymphocytes by test item treatment in comparison with haematological parameters of control animals or versus predosing in the same animals.

Another series concerns the target EDG3 (Homo sapiens, UniProt Q99500). The series can be described thus: 35S-GTPγS binding assay, EDG3 (S1P3). In kind it is biochemical. The settings on record: Table 1a. The method, then: as §1
The test system of series [4] is circulating lymphocytes. The series can be described thus: Assessment of lymphopenia in rats. The settings on record: 0.3 mpk, 24 hrs, Wistar male. The series is classed as in vivo. The method, then:
as §2, §3, §4

Series [5] has as its target T1, EDG-1. The series can be described thus: [3H]dihydroS1P binding assay on HEK293-EDG-1 cell membranes. On the set-up: expressed in transfected cells; host or cells: HEK293. The note with it: transfected HEK293 cells; read-out: IC50, competition with [3H]dihydroS1P. The text has this:
Furthermore, we settled a binding assay on HEK293-EDG-1 cells on these membranes using [3H]dihydroS1P. By Scatchard analysis we identified one binding site for [3H]dihydroS1P. Both S1P and dihydroS1P (an S1P biometabolite) compete with [3H]dihydroS1P on transfected HEK293 cells with an 1050 closed to 5± nM and a maximum binding capacity Bmax of […] of protein.

Counter-ions that a name gives are not always drawn.

T1 sequence (P21453 whole entry): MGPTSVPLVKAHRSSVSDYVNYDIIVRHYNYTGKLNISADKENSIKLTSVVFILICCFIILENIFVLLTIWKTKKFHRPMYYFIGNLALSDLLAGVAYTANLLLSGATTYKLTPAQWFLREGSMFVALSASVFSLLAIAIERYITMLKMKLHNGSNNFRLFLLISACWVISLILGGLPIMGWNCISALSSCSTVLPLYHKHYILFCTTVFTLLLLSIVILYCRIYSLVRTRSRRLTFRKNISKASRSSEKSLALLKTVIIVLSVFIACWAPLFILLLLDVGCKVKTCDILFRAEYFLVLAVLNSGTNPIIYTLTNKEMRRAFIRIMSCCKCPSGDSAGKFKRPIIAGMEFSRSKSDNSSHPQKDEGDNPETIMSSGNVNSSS
Sequence of EDG5 (O95136 whole entry, species assumed): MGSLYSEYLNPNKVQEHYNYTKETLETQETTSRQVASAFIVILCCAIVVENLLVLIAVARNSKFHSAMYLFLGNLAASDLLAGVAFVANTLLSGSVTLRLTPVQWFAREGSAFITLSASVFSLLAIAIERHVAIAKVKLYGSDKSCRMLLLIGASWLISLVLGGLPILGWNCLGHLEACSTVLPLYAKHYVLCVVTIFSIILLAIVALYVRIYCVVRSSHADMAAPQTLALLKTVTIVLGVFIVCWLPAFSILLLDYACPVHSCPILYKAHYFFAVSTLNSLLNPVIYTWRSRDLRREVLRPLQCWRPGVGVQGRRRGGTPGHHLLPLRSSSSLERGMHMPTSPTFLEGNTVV
Sequence of hERG channel (Q12809 whole entry): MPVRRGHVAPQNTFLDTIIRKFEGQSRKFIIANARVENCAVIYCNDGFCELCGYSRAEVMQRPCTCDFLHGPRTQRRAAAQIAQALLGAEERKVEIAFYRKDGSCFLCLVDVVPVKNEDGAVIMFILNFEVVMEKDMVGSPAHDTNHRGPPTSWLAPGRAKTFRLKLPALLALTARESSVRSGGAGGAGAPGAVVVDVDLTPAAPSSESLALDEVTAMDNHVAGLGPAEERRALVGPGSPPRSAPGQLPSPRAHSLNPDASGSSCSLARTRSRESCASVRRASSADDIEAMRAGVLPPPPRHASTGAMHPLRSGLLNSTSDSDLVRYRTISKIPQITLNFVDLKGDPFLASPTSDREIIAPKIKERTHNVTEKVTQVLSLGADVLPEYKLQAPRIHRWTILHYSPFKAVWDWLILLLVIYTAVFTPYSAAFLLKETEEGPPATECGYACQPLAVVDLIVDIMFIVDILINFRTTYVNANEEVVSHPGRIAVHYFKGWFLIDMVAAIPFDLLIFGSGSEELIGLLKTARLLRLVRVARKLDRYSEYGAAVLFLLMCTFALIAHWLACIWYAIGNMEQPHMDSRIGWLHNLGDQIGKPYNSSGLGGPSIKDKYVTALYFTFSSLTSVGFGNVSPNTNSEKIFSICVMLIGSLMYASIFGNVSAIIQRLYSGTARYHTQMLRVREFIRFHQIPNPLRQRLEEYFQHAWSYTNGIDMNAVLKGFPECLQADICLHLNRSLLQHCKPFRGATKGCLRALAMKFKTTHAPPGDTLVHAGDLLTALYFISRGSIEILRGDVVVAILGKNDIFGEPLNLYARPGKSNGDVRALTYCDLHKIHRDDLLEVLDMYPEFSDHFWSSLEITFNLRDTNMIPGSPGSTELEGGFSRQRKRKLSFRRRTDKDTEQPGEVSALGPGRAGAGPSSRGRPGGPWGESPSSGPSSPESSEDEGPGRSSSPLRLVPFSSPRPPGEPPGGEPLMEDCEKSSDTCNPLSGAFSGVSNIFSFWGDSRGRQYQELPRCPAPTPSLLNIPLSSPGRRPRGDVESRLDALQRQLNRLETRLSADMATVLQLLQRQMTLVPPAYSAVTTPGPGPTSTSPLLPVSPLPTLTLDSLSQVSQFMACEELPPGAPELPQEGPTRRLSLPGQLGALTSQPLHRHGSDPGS
Sequence of EDG3 (Q99500 whole entry, species assumed): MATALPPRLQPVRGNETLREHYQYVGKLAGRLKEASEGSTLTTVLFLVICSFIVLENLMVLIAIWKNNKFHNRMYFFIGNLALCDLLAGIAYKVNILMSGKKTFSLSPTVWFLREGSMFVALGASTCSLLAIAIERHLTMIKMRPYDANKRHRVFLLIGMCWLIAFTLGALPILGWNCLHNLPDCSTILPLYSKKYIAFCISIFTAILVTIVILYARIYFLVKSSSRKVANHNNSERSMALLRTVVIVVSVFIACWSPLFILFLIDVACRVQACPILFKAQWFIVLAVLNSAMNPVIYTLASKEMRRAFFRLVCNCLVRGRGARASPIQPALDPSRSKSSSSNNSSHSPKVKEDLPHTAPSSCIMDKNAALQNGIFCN

Consider `CC(C)Cc1ccc(-c2nc(-c3ccc(CN[C@H]4C[C@@H](C(=O)O)C4)cc3)no2)cc1` [Comparative example 9, reference compound], for which the “ED50 (EDG1)” value in the series with EDG1 is recorded as “Inactive at 1 mg/kg”.
By EC50 is commonly meant the concentration at which the effect is half-maximal. A word on the Cmax: it is the highest concentration seen after dosing. For orientation: Ki means the equilibrium dissociation constant of an inhibitor or competing ligand from its target. In general, ED50 refers to the midpoint of the dose-response relation. For `COCCOCC1(C(=O)O)CCN(Cc2ccc(-c3noc(-c4ccc(CC(C)C)c(Cl)c4)n3)cc2)CC1` [Example 14, 1-{4-[5-(3-chloro-4-isobutylphenyl)-[1,2,4]-oxadiazol-3-yl]benzyl}-4-(2-methoxyethoxymethyl)piperidine-4-carboxylic acid tert-butyl amine salt], the EC50 at EDG-1 [1] is under 1 nM; on EDG5 it was over 1000 nM; at EDG3 it was over 1000 nM. In [2] (n = 4), this compound registered a Cmax of 843 ng/mL. The AUC(0-t) in series [2] (n = 4, read-out: AUC(0-48 h)) is 9240 ng·h/mL. In addition, on hERG channel, the Ki is over 10000 nM. Also, the ED50 in the series on circulating lymphocytes [3] turned out to be 0.2 mg/kg. Further, in the series on circulating lymphocytes [4], the “Lymphopenia in rats % lymphopenia at given dose at 24 hrs” value is reported as 72% (0.3 mpk).
The term IC50 denotes the midpoint of a concentration-inhibition curve. Consider `CCCCCCCCCCCCC/C=C/[C@@H](O)[C@@H](N)COP(=O)(O)O` [Example S1P, sphingosine-1-phosphate], for which the IC50 at EDG-1 [5] was about 5 nM.
Same read-out and setting: under `CCCCCCCCCCCCCCC[C@@H](O)[C@@H](N)COP(=O)(O)O` [dihydroS1P] stands about 5 nM.
With `CC(C)Cc1ccc(-c2nc(-c3ccc(CN4CCC(C)(C(=O)O)CC4)cc3)no2)cc1` [drawing 239], the lymphopenia in the series with EDG1 was determined as 40% at 1 mg/kg.
